The source of these data is patent US20240401154A1, “SYNTHESIS AND PREPARATION OF ULTRA-LOW VISCOSITY AND HIGH MAGNETIC SUSCEPTIBILITY MAGNETIC IONIC LIQUIDS” (priority 2023, published 2024).

The structures appear in SMILES notation. Read-outs that look alike come from different tables or passages of the source. Marks after values point to notes of the source that are not given here.

For data set [1] the following is noted: GC-FID; previously referenced MILs; cited from earlier work.
For data set [2] the following is noted: previously studied MILs, Table 2, cited from earlier work.
The conditions of data set [3]: previously referenced MILs, cited from earlier work.
For data set [4] the following is noted: SQUID magnetometer; previously studied MILs, Table 2; cited from earlier work.
A short description of data set [5]: Thermal stability by thermogravimetric analysis (TGA). To be noted: TGA at 10% weight loss. Type of data set: physicochemical. In short, it runs like this:
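Mass loss measured by TGA from 40 to 350 °C at 5 °C min^−1. Degradation also checked with the MILs used as GC stationary phase, oven 40 to 200 °C at 1 °C min^−1, with FID detection of decomposition products.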

Data set [6] is described as follows: Effective magnetic moment from magnetic susceptibility balance (MSB). The following applies: per formula unit. Type of data set: physicochemical. The method, boiled down: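 Magnetic susceptibility (XM) measured on a magnetic susceptibility balance for 15 rare-earth and transition-metal MILs. μeff derived from XM and the measurement temperature T. Transition-metal MILs also checked by SQUID magnetometry for paramagnetism and any magnetic transition.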

Data set [7] is described as follows: Solubility of MILs in organic solvents and water. The format is physicochemical. The text has this: The solubility of lanthanide and transition metal MILs was investigated in popular traditional organic solvents. […]
The solubility of lanthanide and transition metal MILs was investigated in popular traditional organic solvents.

Data set [8] in a line: Viscosity, Brookfield DVI cone and plate viscometer. Type of data set: physicochemical. To be noted: 21.7° C.; neat MIL dried 48 hours under vacuum. In short, it runs like this:
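Cone and plate viscometer with CPA-51Z spindle, about 0.5 g of each MIL after 48 h vacuum drying. Measured at 21.6–21.7 °C.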

Data set [9] can be described thus: Thermal stability, MIL as GC stationary phase with FID. Type of data set: physicochemical. To be noted: exponential increase in response beyond 2,000 pA. In short, it runs like this:
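TGA run from 40 to 350 °C at 5 °C min^−1. For a more sensitive check, MILs served as GC stationary phase under an oven program of 40 to 200 °C at 1 °C min^−1, with decomposition/degradation products detected by FID.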

Where [10] appears, read: acetone, chloroform, dichloromethane, acetonitrile, methanol, ethanol, diethyl ether, ethyl acetate, isopropanol at 20% (w/v).
Where [11] appears, read: hexane, heptane, benzene, toluene at 10% (w/v).
Where [12] appears, read: hexane, heptane, benzene, toluene at 20% (w/v).
The mark [13] stands for this setting: twelve organic solvents (without acetonitrile) at 50% (w/v).

In the case of `CCCCCCCCN(CCCCCCCC)C(=O)COCC(=O)N(CCCCCCCC)CCCCCCCC.CCCCCCCCN(CCCCCCCC)C(=O)COCC(=O)N(CCCCCCCC)CCCCCCCC.O=C(C=C([O-])C(F)(F)F)C(F)(F)F.O=C(C=C([O-])C(F)(F)F)C(F)(F)F.O=C(C=C([O-])C(F)(F)F)C(F)(F)F.O=C(C=C([O-])C(F)(F)F)C(F)(F)F.O=C(C=C([O-])C(F)(F)F)C(F)(F)F.O=C(C=C([O-])C(F)(F)F)C(F)(F)F.[Co+2].[Co+2].[Co+2]` [[Co(TODGA)2][Co(hfacac)3]2], the “Onset of MIL volatilization (° C.)^1” value in data set [1] was 231 °C. Moreover, the Viscosity in [2] (reported at 19.9° C.) was 28,310^e. In addition, the Solubility entry was “S^b (soluble in acetone, chloroform, dichloromethane, acetonitrile, methanol, ethanol, diethyl ether, ethyl acetate, and isopropanol at 20% (w/v).)” in [3] (setting [10]); “S^a (soluble in hexane, heptane, benzene, and toluene at 10% (w/v).)” in [3] (setting [11]); “S^f (insoluble in water at 0.01% (w/v).)” in [3] (water at 0.01% (w/v)). In addition, the Effective magnetic moment in [4] was 13.34^f.

Regarding `CCCCCCCCN(CCCCCCCC)C(=O)COCC(=O)N(CCCCCCCC)CCCCCCCC.CCCCCCCCN(CCCCCCCC)C(=O)COCC(=O)N(CCCCCCCC)CCCCCCCC.CCCCCCCCN(CCCCCCCC)C(=O)COCC(=O)N(CCCCCCCC)CCCCCCCC.O=C(C=C([O-])C(F)(F)F)C(F)(F)F.O=C(C=C([O-])C(F)(F)F)C(F)(F)F.O=C(C=C([O-])C(F)(F)F)C(F)(F)F.O=C(C=C([O-])C(F)(F)F)C(F)(F)F.O=C(C=C([O-])C(F)(F)F)C(F)(F)F.O=C(C=C([O-])C(F)(F)F)C(F)(F)F.O=C(C=C([O-])C(F)(F)F)C(F)(F)F.O=C(C=C([O-])C(F)(F)F)C(F)(F)F.O=C(C=C([O-])C(F)(F)F)C(F)(F)F.O=C(C=C([O-])C(F)(F)F)C(F)(F)F.O=C(C=C([O-])C(F)(F)F)C(F)(F)F.O=C(C=C([O-])C(F)(F)F)C(F)(F)F.[Dy+3].[Dy+3].[Dy+3].[Dy+3]` [[Dy(TODGA)3][Dy(hfacac)4]3], the “Onset of MIL volatilization (° C.)^1” value in data set [1] was 175 °C. Further, in [2] (reported at 19.9° C.), the Viscosity is listed as 9,210^e. Also, the Solubility result was “S^b (soluble in acetone, chloroform, dichloromethane, acetonitrile, methanol, ethanol, diethyl ether, ethyl acetate, and isopropanol at 20% (w/v).)” in data set [3] (setting [10]); “S^a (soluble in hexane, heptane, benzene, and toluene at 10% (w/v).)” in data set [3] (setting [11]); “S^c (soluble in hexane, heptane, benzene, and toluene at 20% (w/v).)” in data set [3] (setting [12]); “S^f (insoluble in water at 0.01% (w/v).)” in data set [3] (water at 0.01% (w/v)). Besides, the Effective magnetic moment in [4] is given as 20.00^f.

`CCCCCCCCN(CCCCCCCC)C(=O)COCC(=O)N(CCCCCCCC)CCCCCCCC.CCCCCCCCN(CCCCCCCC)C(=O)COCC(=O)N(CCCCCCCC)CCCCCCCC.CCCCCCCCN(CCCCCCCC)C(=O)COCC(=O)N(CCCCCCCC)CCCCCCCC.O=C(C=C([O-])C(F)(F)F)C(F)(F)F.O=C(C=C([O-])C(F)(F)F)C(F)(F)F.O=C(C=C([O-])C(F)(F)F)C(F)(F)F.O=C(C=C([O-])C(F)(F)F)C(F)(F)F.O=C(C=C([O-])C(F)(F)F)C(F)(F)F.O=C(C=C([O-])C(F)(F)F)C(F)(F)F.O=C(C=C([O-])C(F)(F)F)C(F)(F)F.O=C(C=C([O-])C(F)(F)F)C(F)(F)F.O=C(C=C([O-])C(F)(F)F)C(F)(F)F.O=C(C=C([O-])C(F)(F)F)C(F)(F)F.O=C(C=C([O-])C(F)(F)F)C(F)(F)F.O=C(C=C([O-])C(F)(F)F)C(F)(F)F.[Gd+3].[Gd+3].[Gd+3].[Gd+3]` [[Gd(TODGA)3][Gd(hfacac)4]3]: the “Onset of MIL volatilization (° C.)^1” value in [1] is 183 °C. The Viscosity in [2] (reported at 19.9° C.) was 13,640^e. In addition, the Solubility entry in data set [3] (setting [10]) is “S^b (soluble in acetone, chloroform, dichloromethane, acetonitrile, methanol, ethanol, diethyl ether, ethyl acetate, and isopropanol at 20% (w/v).)”; in data set [3] (setting [11]), “S^a (soluble in hexane, heptane, benzene, and toluene at 10% (w/v).)”; in data set [3] (setting [12]), “S^c (soluble in hexane, heptane, benzene, and toluene at 20% (w/v).)”; in data set [3] (water at 0.01% (w/v)), “S^f (insoluble in water at 0.01% (w/v).)”. In data set [4], the Effective magnetic moment was 14.90^f.

Turning to `CCCCCCCCCCCCCC[P+](CCCCCC)(CCCCCC)CCCCCC.CCCCCCCCCCCCCC[P+](CCCCCC)(CCCCCC)CCCCCC.[Cl-].[Cl-].[Cl-].[Cl-].[Co+2]` [[P66614]2[CoCl4]], the Viscosity in data set [2] (reported at 20.0° C.) is 123,500^d. The Effective magnetic moment in data set [4] is recorded as 4.45^f.

With `CCCCCCCCCCCCCC[P+](CCCCCC)(CCCCCC)CCCCCC.CCCCCCCCCCCCCC[P+](CCCCCC)(CCCCCC)CCCCCC.[Cl-].[Cl-].[Cl-].[Cl-].[Mn+2]` [[P66614]2[MnCl4]], in [2] (reported at 20.0° C.), the Viscosity is 112,300^d. The Effective magnetic moment in [4] is listed as 5.81^f.

Turning to `CCCCCCCCCCCCCC[P+](CCCCCC)(CCCCCC)CCCCCC.CCCCCCCCCCCCCC[P+](CCCCCC)(CCCCCC)CCCCCC.CCCCCCCCCCCCCC[P+](CCCCCC)(CCCCCC)CCCCCC.[Cl-].[Cl-].[Cl-].[Cl-].[Cl-].[Cl-].[Gd+3]` [[P66614]3[GdCl6]], the Viscosity in [2] (reported at 20.0° C.) is 28,230^d. The Effective magnetic moment in data set [4] was 7.86^f.

Take `CCCCCCCCOC(=O)COCC(=O)OCCCCCCCC.CCCCCCCCOC(=O)COCC(=O)OCCCCCCCC.CCCCCCCCOC(=O)COCC(=O)OCCCCCCCC.CCCCCCCCOC(=O)COCC(=O)OCCCCCCCC.CCCCCCCCOC(=O)COCC(=O)OCCCCCCCC.CCCCCCCCOC(=O)COCC(=O)OCCCCCCCC.O=C(C=C([O-])C(F)(F)F)C(F)(F)F.O=C(C=C([O-])C(F)(F)F)C(F)(F)F.O=C(C=C([O-])C(F)(F)F)C(F)(F)F.O=C(C=C([O-])C(F)(F)F)C(F)(F)F.O=C(C=C([O-])C(F)(F)F)C(F)(F)F.O=C(C=C([O-])C(F)(F)F)C(F)(F)F.O=C(C=C([O-])C(F)(F)F)C(F)(F)F.O=C(C=C([O-])C(F)(F)F)C(F)(F)F.[Co+2].[Gd+3].[Gd+3]` [compound 14]: the “Onset of MIL volatilization (° C.)^2” value in [5] stood at 172.9 °C. The “μeff, effective magnetic moment” value in data set [6] is given as 12.43 μB. The Solubility result is “S^b (soluble in acetone, chloroform, dichloromethane, acetonitrile, methanol, ethanol, diethyl ether, ethyl acetate, and isopropanol at 20% (w/v).)” in [7] (setting [10]); “S^a (soluble in hexane, heptane, benzene, and toluene at 10% (w/v).)” in [7] (setting [11]); “S^c (soluble in hexane, heptane, benzene, and toluene at 20% (w/v).)” in data set [7] (setting [12]); “S^d (soluble in acetone, chloroform, dichloromethane, methanol, ethanol, diethyl ether, ethyl acetate, isopropanol hexane, heptane, benzene, and toluene at 50% (w/v).)” in [7] (setting [13]); “S^f (insoluble in water at 0.01% (w/v).)” in [7] (water at 0.01% (w/v)). Moreover, in data set [8], the “Viscosity (cP)” value was 149.1 cP. Also, the “Onset of MIL volatilization (° C.)^1” value in data set [9] was determined as 126 °C.

Consider `CCCCCCCCOC(=O)COCC(=O)OCCCCCCCC.CCCCCCCCOC(=O)COCC(=O)OCCCCCCCC.CCCCCCCCOC(=O)COCC(=O)OCCCCCCCC.CCCCCCCCOC(=O)COCC(=O)OCCCCCCCC.CCCCCCCCOC(=O)COCC(=O)OCCCCCCCC.CCCCCCCCOC(=O)COCC(=O)OCCCCCCCC.O=C(C=C([O-])C(F)(F)F)C(F)(F)F.O=C(C=C([O-])C(F)(F)F)C(F)(F)F.O=C(C=C([O-])C(F)(F)F)C(F)(F)F.O=C(C=C([O-])C(F)(F)F)C(F)(F)F.O=C(C=C([O-])C(F)(F)F)C(F)(F)F.O=C(C=C([O-])C(F)(F)F)C(F)(F)F.O=C(C=C([O-])C(F)(F)F)C(F)(F)F.O=C(C=C([O-])C(F)(F)F)C(F)(F)F.[Co+2].[Ho+3].[Ho+3]` [compound 15], for which, in data set [5], the “Onset of MIL volatilization (° C.)^2” value was 183.3 °C. For the same compound, in [6], the “μeff, effective magnetic moment” value is on record as 15.56 μB. For the same compound, the Solubility result was “S^b (soluble in acetone, chloroform, dichloromethane, acetonitrile, methanol, ethanol, diethyl ether, ethyl acetate, and isopropanol at 20% (w/v).)” in [7] (setting [10]); “S^a (soluble in hexane, heptane, benzene, and toluene at 10% (w/v).)” in data set [7] (setting [11]); “S^c (soluble in hexane, heptane, benzene, and toluene at 20% (w/v).)” in data set [7] (setting [12]); “S^d (soluble in acetone, chloroform, dichloromethane, methanol, ethanol, diethyl ether, ethyl acetate, isopropanol hexane, heptane, benzene, and toluene at 50% (w/v).)” in [7] (setting [13]); “S^f (insoluble in water at 0.01% (w/v).)” in data set [7] (water at 0.01% (w/v)). Besides, in data set [8], the “Viscosity (cP)” value turned out to be 216.4 cP. In addition, the “Onset of MIL volatilization (° C.)^1” value in [9] stood at 115 °C.
